Consider 5 compounds from article PMC5717258, “Bioaccumulation of pharmaceuticals and personal care product chemicals in fish exposed to wastewater effluent in an urban wetland” (Scientific Reports, 2017).

The conditions of series [1]: cited from earlier work; for Salmon (whole body) concentration: Table S7, ref Meador et al. (2016); for whole fish concentration, salmon: ref Meador et al. 18.
On the set-up of series [2]: method as in US EPA Chemistry Dashboard. The note with it: ref US EPA Chemistry Dashboard; cited from earlier work.
The conditions of series [3]: Jordan Harbour brown bullhead, wet weight. On the procedure: Plasma from 9 individual male fish (500 µL/individual) was pooled to yield 3 samples for PPCP analysis. […] Plasma from 6 individual carp (2.3–3.5 g) from each location was selected for PPCP analysis. […] Plasma samples were frozen (−80 °C) until analysis.
A total of 20 fish plasma samples from the pooled caged fish (7) and the wild fish (13) along with 12 water samples were selected for analysis. […] A full list of analytes is provided in Supplementary Information. Mass labelled^13C-, or deuterated surrogate internal standards were used for quantification of all analytes via the isotope dilution/surrogate standard quantitation method. Prior to extraction and/or clean-up procedures, aqueous samples were adjusted to pH 2.0, spiked with extraction surrogate standards, then adjusted to pH 4 using tetrasodium ethylenediamine-tetraacetate dihydrate. Plasma samples (2.3–2.5 g) were spiked with extraction surrogate standards, sonicated with 20 mL acetonitrile, then diluted with ultra-pure water to 200 mL. The extracts were cleaned up by solid phase extraction using Oasis HLB cartridges (Waters Ltd. Mississauga ON), filtered, and analyzed by liquid chromatography-electrospray ionization-tandem mass spectrometry (LC/ESI-MS/MS) in positive or negative ionization mode. The analysis of the complete list of analytes (SI Table S1) required a total of five instrumental runs.

Series [4] in a line: Plasma bioaccumulation factor (BAFP), goldfish. The class given is in vivo, goldfish (Carassius auratus). The note with it: for BAFP, CPM2 goldfish caged: water sample of August 2012. Summed up:
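BAFP in goldfish was calculated as plasma concentration (ng/g × 1000) divided by water concentration (ng/L).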

The conditions of series [5]: cited from earlier work; for Sculpin (whole body) concentration: Table S7, ref Meador et al. (2016); for whole fish concentration, sculpin: ref Meador et al. 18.
Series [6] in a line: Plasma bioaccumulation factor (BAFP), carp. The class given is in vivo, carp (Cyprinus carpio). Here is the method:
Bioaccumulation factor (BAFP) was calculated as concentration in fish plasma (ng/g × 1000) divided by concentration in water (ng/L). Two widely used modeling approaches for predicting organic contaminant bioaccumulation were assessed: the BCF-BAF model for whole body BAFs[53] and the fish-plasma concentration calculation of Huggett et al.[35] modified by Berninger et al.[54]. The latter involves estimating an octanol-water partition coefficient (Kow) adjusted for fraction ionized (log D), using the pKa value to adjust log Kow[54] taking into account the pH of CPM waters. Further information on the calculation of log D, blood-water partitioning (PBW), and plasma concentrations (FPC) is given in the SI.

The conditions of series [7]: cited from earlier work.
For series [8] the following is noted: for plasma concentration, CPM-C 01: Cootes carp 01, 2011, male; for plasma concentration, CPM-C 2: Cootes carp 2, Sep 27, 2011, male; for plasma concentration, CPM-C 10: Cootes carp 10, Sep 28, 2011, female; for plasma concentration, CPM-C 20: Cootes carp 20, 2011, male; for plasma concentration, JH-C 54: Jordan Harbour carp 54, Nov 7, 2011, male; for plasma concentration, JH-C 73: Jordan Harbour carp 73, Nov 7, 2011, female; for plasma concentration, JH-C 74: Jordan Harbour carp 74, Nov 7, 2011, male; for plasma concentration, JH-C 75: Jordan Harbour carp 75, Nov 7, 2011, female; for plasma concentration, JH-C 78: Jordan Harbour carp 78, Nov 7, 2011, male; for plasma concentration, JH-C 82: Jordan Harbour carp 82, Nov 7, 2011, female.

The nature of series [9]: in vivo. To be noted: for concentration at 21 days: goldfish (Carassius auratus), in vivo. Summed up:
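Pooled caged-goldfish plasma, wild-fish plasma (2.3–2.5 g) and water samples were spiked with isotope-labelled surrogates, then extracted (acetonitrile sonication for plasma; pH-adjusted water) and cleaned up by HLB SPE. PPCPs were quantified by LC/ESI-MS/MS using isotope dilution. Non-detects were set to ½ DL when the analyte was detected in ≥2 samples.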

For series [10] the following is noted: cited from earlier work; for BAFP: treated WWTP effluent from two Swedish cities.
For series [11] the following is noted: cited from earlier work. This is another data set of the same source.
The conditions of series [12]: cited from earlier work. The source holds these as a separate data set.
Setting [13] is: conc in fish plasma/conc in water.
The mark [14] stands for this setting: range based on range of plasma concentrations.
Where [15] appears, read: male, goldfish (Carassius auratus), in vivo.

Read-outs that look alike come from different tables or passages of the source.

For `CCN(CC)C(=O)c1cccc(C)c1` [DEET, N,N-Diethyl-m-toluamide], in series [1], the “Salmon (whole body) concentration” value was 0.39 to 1.6 ng/g and the “whole fish concentration, salmon” value was 0.39 - 1.6 ng/g wet weight or ng/mL for plasma. Further, in [2], the “log Kow” value is 2.18. In addition, in [3], the “plasma concentration, JH-BB” value is given as 2.59 ng/g. Further, in series [4], the “BAFP, CPM1 goldfish caged” value stood at 4 L/kg and the “BAFP, CPM2 goldfish caged” value turned out to be 4 L/kg. Moreover, the “BAFP, CPM3 goldfish caged” value in series [4] (CPM3) stood at 4 L/kg. In addition, in series [4] (Jordan Harbour), the “BAFP, JH goldfish caged” value stood at 9 L/kg. Further, the “BAFP at CPM3, wild goldfish, average” value in series [4] (setting [13]) is given as 9 L/kg. Besides, in series [4] (setting [14]), the “BAFP at CPM3, wild goldfish, range” value was in the range of 4 to 11 L/kg. In series [5], the “Sculpin (whole body) concentration” value is 0.41 to 2.2 ng/g and the “whole fish concentration, sculpin” value is 0.41 - 2.2 ng/g wet weight or ng/mL for plasma. In addition, in [6] (Jordan Harbour), the “BAFP at JH, carp, average” value was 32 L/kg and the “BAFP at JH, carp, range” value lay within 4 to 51 L/kg. For the same compound, the “BAFP at CPM3, carp, average” value in [6] (setting [13]) amounted to 15 L/kg. Also, in series [6] (setting [14]), the “BAFP at CPM3, carp, range” value was in the range of 4 to 22 L/kg. For the same compound, the “BAFP in carp plasma, median” value in series [7] is less than 6.2. Moreover, in series [8] (Cootes Paradise Marsh, range), the “Cootes carp plasma, range of concentrations” value fell in the range of 0.19 to 1.15 ng/g and the “wild goldfish plasma, range of concentrations” value was 0.31 to 0.42 ng/g. Also, in series [8] (wet weight), the “plasma concentration, CPM-C 01” value turned out to be 0.194 ng/g; the “plasma concentration, CPM-C 2” value amounted to 1.09 ng/g; the “plasma concentration, CPM-C 10” value is recorded as 1.15 ng/g; the “plasma concentration, CPM-C 20” value was 0.35 ng/g. Further, in [8] (wet weight), the “plasma concentration, JH-C 54” value was found to be 0.331 ng/g; the “plasma concentration, JH-C 73” value came out at 0.083 ng/g; the “plasma concentration, JH-C 74” value came to 0.494 ng/g; the “plasma concentration, JH-C 75” value is listed as 0.914 ng/g. Besides, in series [8] (wet weight), the “plasma concentration, JH-C 78” value turned out to be 1.09 ng/g and the “plasma concentration, JH-C 82” value was 0.865 ng/g. Also, in series [8] (Cootes carp 13, Sep 28, 2011, female, wet weight), the “plasma concentration, CPM-C 13” value is 1.1 ng/g. Also, the “plasma concentration, CPM-C 36” value in [8] (Cootes carp 36, Oct 3, 2011, female, wet weight) was 0.743 ng/g. In addition, the “plasma concentration, fold higher in carp plasma than in goldfish” value in series [8] (Jordan Harbour, carp vs caged goldfish) is “about 2 fold”. Besides, in series [8] (Table S7), the “Carp plasma concentration, this study (range)” value fell in the range of 0.19 to 1.15 ng/g and the “Goldfish plasma concentration, this study (range)” value was in the range of 0.23 to 0.58 ng/g. Besides, in series [8] (Table S8), the “plasma concentration, carp, this study (mean)” value is recorded as 0.77 ng/g wet weight or ng/mL for plasma and the “plasma concentration, goldfish, this study (mean)” value is listed as 0.46 ng/g wet weight or ng/mL for plasma. In addition, the “plasma concentration, CPM wild-01” value in series [8] (wild goldfish sample 01, 2012, wet weight) is reported as 0.234 ng/g. The “plasma concentration, CPM wild-02” value in series [8] (wild goldfish sample 02, 2012, wet weight) was found to be 0.584 ng/g. Further, the “plasma concentration, CPM wild-03” value in series [8] (wild goldfish sample 03, 2012, wet weight) stood at 0.56 ng/g. For the same compound, the “plasma concentration, CPM1 caged” value in series [9] (CPM1, 07-2014, pooled plasma, wet weight) is on record as 0.416 ng/g. The “plasma concentration, CPM2 caged” value in [9] (CPM2, 07-2014, pooled plasma, wet weight) turned out to be 0.41 ng/g. In addition, the “plasma concentration, CPM3 caged” value in series [9] (CPM3, 07-2014, pooled plasma, wet weight) worked out at 0.314 ng/g. In [9] (Cootes Paradise Marsh, range), the “caged goldfish plasma, range of concentrations” value fell in the range of 0.23 to 0.58 ng/g. The “plasma concentration, JH caged” value in series [9] (Jordan Harbour reference site, 07-2014, pooled plasma, wet weight) came out at 0.235 ng/g.

Turning to `CC(C)Cc1ccc(C(C)C(=O)O)cc1` (stereo not drawn) [Ibuprofen], the “plasma concentration, JH-BB” value in series [3] is listed as less than 5.7 ng/g. The BAFP in series [10] is 21–58. Further, in [8] (wet weight), the “plasma concentration, CPM-C 01” value is reported as less than 3.16 ng/g; the “plasma concentration, CPM-C 2” value is listed as less than 4.31 ng/g; the “plasma concentration, CPM-C 10” value is on record as less than 4.53 ng/g; the “plasma concentration, CPM-C 20” value is recorded as less than 3.23 ng/g. For the same compound, in series [8] (wet weight), the “plasma concentration, JH-C 54” value was less than 3.18 ng/g; the “plasma concentration, JH-C 73” value is reported as less than 3.09 ng/g; the “plasma concentration, JH-C 74” value is recorded as less than 3.19 ng/g; the “plasma concentration, JH-C 75” value is recorded as less than 4.52 ng/g. For the same compound, in series [8] (wet weight), the “plasma concentration, JH-C 78” value is less than 3.13 ng/g and the “plasma concentration, JH-C 82” value is recorded as less than 3.01 ng/g.

Take `O=C1Nc2ccc(Cl)cc2C(c2ccccc2)=NC1O` (stereo not drawn) [Oxazepam]: the BAFP in [10] is reported as 0.7–3.6.

Consider `CN[C@H]1CC[C@@H](c2ccc(Cl)c(Cl)c2)c2ccccc21` [Sertraline], for which, in [1], the “Salmon (whole body) concentration” value is listed as 17 ng/g and the “whole fish concentration, salmon” value is reported as 17 ng/g wet weight or ng/mL for plasma. The “log Kow” value in [2] is reported as 5.29. In series [4], the “BAFP, CPM1 goldfish caged” value stood at 50 L/kg and the “BAFP, CPM2 goldfish caged” value is 27 L/kg. Further, in [11] (human, converted from µg/mL, ref Schulz et al.[56]), the “Therapeutic "normal" blood-plasma/serum concentration” value is 50 to 250 ng/mL. Further, in [11] (human, ref Schulz et al.[56]), the “toxic dose (toxic blood-plasma/serum concentration)” value is recorded as 290 ng/mL. In addition, in series [11] (ref Berninger & Brooks[60]), the “Cmax (human therapeutic dose)” value is given as 290 ng/mL. In addition, in series [5], the “Sculpin (whole body) concentration” value is recorded as 0.2 ng/g and the “whole fish concentration, sculpin” value is recorded as 0.2 ng/g wet weight or ng/mL for plasma. For the same compound, in [10] (ref Fick et al. 12), the “plasma concentration, rainbow trout” value was 0.30-2.4 ng/g wet weight or ng/mL for plasma. The “BAFP in carp plasma, median” value in series [7] was 8.9. In addition, in series [7] (mean ± SD, ref Tanoue et al.16), the “plasma concentration, crucian carp & common carp” value is on record as 0.21±0.18 ng/g wet weight or ng/mL for plasma.

In the case of `Cc1cc(C)nc(NS(=O)(=O)c2ccc(N)cc2)n1` [Sulfamethazine], the “log Kow” value in [2] is on record as 0.19. In addition, the “plasma concentration, carp and tilapia” value in series [12] (ref Zhao et al. 15) was 6.47 ng/g wet weight or ng/mL for plasma. The “log BAFP” value in series [12] (tilapia and carp species in southern China) was 1.92–4.18. Besides, the “log BAFP, goldfish and carp in this study” value in series [4] (goldfish and carp) is recorded as 1.53–2.73. The “plasma concentration, carp, this study (mean)” value in series [8] (in vivo) is “< mdl”. Moreover, the “plasma concentration, CPM wild-01” value in series [8] (setting [15]) is 0.166 ng/g. Moreover, the “plasma concentration, CPM wild-02” value in [8] (setting [15]) came to 0.084 ng/g. For the same compound, the “plasma concentration, CPM wild-03” value in series [8] (setting [15]) stood at 0.066 ng/g. In addition, in [8] (setting [15]), the “plasma concentration, goldfish, this study (mean)” value is recorded as 0.11 ng/g wet weight or ng/mL for plasma. Also, the concentration at 21 days is 0.06 to 0.17 ng/g in [9] (caged goldfish plasma, range of concentrations); less than 0.244 ng/g in series [9] (plasma concentration, CPM1 caged); less than 0.165 ng/g in series [9] (plasma concentration, CPM2 caged); less than 0.123 ng/g in series [9] (plasma concentration, CPM3 caged); less than 0.12 ng/g in [9] (plasma concentration, JH caged).
